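Values below derive from 48-hour exposures of cells grown in 96-well plates, with endpoints linearly interpolated between the two concentrations bracketing the appropriate inhibition level. TGI: total growth inhibition.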
Experiments:
Test in all cases: NCI tumour cell line growth inhibition, 48 h
SNB-19 CNS = tested on: SNB-19 CNS
MDA-N = tested on: MDA-N
UACC-62 melanoma = tested on: UACC-62 melanoma
SK-OV-3 ovarian = tested on: SK-OV-3 ovarian
NCI-H23 lung = tested on: NCI-H23 lung
RPMI-8226 leukemia = tested on: RPMI-8226 leukemia
MDA-MB-435 = tested on: MDA-MB-435
NCI-H460 lung = tested on: NCI-H460 lung
COLO 205 colon = tested on: COLO 205 colon
UO-31 renal = tested on: UO-31 renal
786-0 renal = tested on: 786-0 renal
SW-620 colon = tested on: SW-620 colon
SF-539 CNS = tested on: SF-539 CNS
HOP-92 NSCLC = tested on: HOP-92 NSCLC
SF-268 CNS = tested on: SF-268 CNS
U251 CNS = tested on: U251 CNS
EKVX NSCLC = tested on: EKVX NSCLC
UACC-257 melanoma = tested on: UACC-257 melanoma
PC-3 prostate = tested on: PC-3 prostate
M14 melanoma = tested on: M14 melanoma
MDA-MB-231 breast = tested on: MDA-MB-231 breast
LOX IMVI melanoma = tested on: LOX IMVI melanoma
MOLT-4 leukemia = tested on: MOLT-4 leukemia
HCT-15 colon = tested on: HCT-15 colon
TK-10 renal = tested on: TK-10 renal
CAKI-1 renal = tested on: CAKI-1 renal
HL-60(TB) leukemia = tested on: HL-60(TB) leukemia
MCF7 breast = tested on: MCF7 breast
SK-MEL-5 melanoma = tested on: SK-MEL-5 melanoma
A549 NSCLC = tested on: A549 NSCLC
OVCAR-8 ovarian = tested on: OVCAR-8 ovarian
KM12 colon = tested on: KM12 colon
DU-145 prostate = tested on: DU-145 prostate
A498 renal = tested on: A498 renal
OVCAR-5 ovarian = tested on: OVCAR-5 ovarian
SN12C renal = tested on: SN12C renal
T-47D breast = tested on: T-47D breast
HOP-62 NSCLC = tested on: HOP-62 NSCLC
OVCAR-3 ovarian = tested on: OVCAR-3 ovarian
CCRF-CEM leukemia = tested on: CCRF-CEM leukemia
HCT-116 colon = tested on: HCT-116 colon
MALME-3M melanoma = tested on: MALME-3M melanoma
NCI/ADR-RES ovarian = tested on: NCI/ADR-RES ovarian
SK-MEL-2 melanoma = tested on: SK-MEL-2 melanoma
BT-549 breast = tested on: BT-549 breast
SF-295 CNS = tested on: SF-295 CNS
IGROV1 ovarian = tested on: IGROV1 ovarian
HS 578T breast = tested on: HS 578T breast
ACHN renal = tested on: ACHN renal
K-562 leukemia = tested on: K-562 leukemia
OVCAR-4 ovarian = tested on: OVCAR-4 ovarian
NCI-H522 lung = tested on: NCI-H522 lung
HCC-2998 colon = tested on: HCC-2998 colon
SK-MEL-28 melanoma = tested on: SK-MEL-28 melanoma
SR leukemia = tested on: SR leukemia
NCI-H226 lung = tested on: NCI-H226 lung
SNB-75 CNS = tested on: SNB-75 CNS
HT29 colon = tested on: HT29 colon
RXF 393 renal = tested on: RXF 393 renal

## CCOC(=O)C1=C(C)N(c2ccc(Cl)cc2)C2(O)C=CC(=O)C3=C(O)c4ccccc4C(=O)C312 (configuration not stated)
SNB-19 CNS
  TGI: 33.1 µM
MDA-N
  TGI: 18.2 µM
UACC-62 melanoma
  TGI: 9.01 µM
SK-OV-3 ovarian
  TGI: 30.7 µM
NCI-H23 lung
  TGI: 25.4 µM
RPMI-8226 leukemia
  TGI: 4.42 µM
MDA-MB-435
  TGI: 11.3 µM
NCI-H460 lung
  TGI: 18.2 µM
COLO 205 colon
  TGI: 11.7 µM
UO-31 renal
  TGI: 15.8 µM
786-0 renal
  TGI: 4.07 µM
SW-620 colon
  TGI: 12.7 µM
SF-539 CNS
  TGI: 18.1 µM
HOP-92 NSCLC
  TGI: 8.98 µM
SF-268 CNS
  TGI: 6.86 µM
U251 CNS
  TGI: 15.6 µM
EKVX NSCLC
  TGI: 21.4 µM
UACC-257 melanoma
  TGI: 42.7 µM
PC-3 prostate
  TGI: 15.8 µM
M14 melanoma
  TGI: 12.4 µM
MDA-MB-231 breast
  TGI: 25 µM
LOX IMVI melanoma
  TGI: 14 µM
MOLT-4 leukemia
  TGI: 8.65 µM
HCT-15 colon
  TGI: 14 µM
TK-10 renal
  TGI: 8.03 µM
CAKI-1 renal
  TGI: 9.21 µM
HL-60(TB) leukemia
  TGI: 5.77 µM
MCF7 breast
  TGI: 8.72 µM
SK-MEL-5 melanoma
  TGI: 20.4 µM
A549 NSCLC
  TGI: 21.8 µM
OVCAR-8 ovarian
  TGI: 19.1 µM
KM12 colon
  TGI: 20.4 µM
DU-145 prostate
  TGI: 21.1 µM
A498 renal
  TGI: 30 µM
OVCAR-5 ovarian
  TGI: 30.7 µM
SN12C renal
  TGI: 13.5 µM
T-47D breast
  TGI: 15.8 µM
HOP-62 NSCLC
  TGI: 18.9 µM
OVCAR-3 ovarian
  TGI: 5.84 µM
CCRF-CEM leukemia
  TGI: 6.69 µM
HCT-116 colon
  TGI: 11.6 µM
MALME-3M melanoma
  TGI: 4.53 µM
NCI/ADR-RES ovarian
  TGI: 12.6 µM
SK-MEL-2 melanoma
  TGI: 16.2 µM
BT-549 breast
  TGI: 28 µM
SF-295 CNS
  TGI: 22.4 µM
IGROV1 ovarian
  TGI: 12.9 µM
HS 578T breast
  TGI: 23.1 µM
ACHN renal
  TGI: 16.4 µM
K-562 leukemia
  TGI: 18.1 µM
OVCAR-4 ovarian
  TGI: 8.33 µM
NCI-H522 lung
  TGI: 6.45 µM

## C=C(Cl)/C(=C\Cl)CCC(Cl)C(C)C (configuration not stated) (tested in a mixture with another compound)
HCC-2998 colon
  TGI: 32.7 µM
SK-MEL-28 melanoma
  TGI: 34.8 µM
SNB-19 CNS
  TGI: 31.5 µM
MDA-N
  TGI: 30.4 µM
UACC-62 melanoma
  TGI: 25.3 µM
SK-OV-3 ovarian
  TGI: 44.5 µM
NCI-H23 lung
  TGI: 28.2 µM
SR leukemia
  TGI: > 100 µM
MDA-MB-435
  TGI: 28.8 µM
NCI-H460 lung
  TGI: 32.9 µM
COLO 205 colon
  TGI: 54.6 µM
NCI-H226 lung
  TGI: 47.9 µM
UO-31 renal
  TGI: 32.1 µM
786-0 renal
  TGI: 29.5 µM
SW-620 colon
  TGI: 7.5 µM
SF-539 CNS
  TGI: 32.2 µM
HOP-92 NSCLC
  TGI: 28.6 µM
SF-268 CNS
  TGI: 37.1 µM
U251 CNS
  TGI: 30.1 µM
SNB-75 CNS
  TGI: 32.5 µM
EKVX NSCLC
  TGI: 33.3 µM
UACC-257 melanoma
  TGI: 27.2 µM
HT29 colon
  TGI: 36.8 µM
PC-3 prostate
  TGI: 39 µM
M14 melanoma
  TGI: 32.7 µM
MDA-MB-231 breast
  TGI: 30.8 µM
LOX IMVI melanoma
  TGI: 3.67 µM
MOLT-4 leukemia
  TGI: > 100 µM
TK-10 renal
  TGI: 33.9 µM
CAKI-1 renal
  TGI: 32.2 µM
HL-60(TB) leukemia
  TGI: > 100 µM
MCF7 breast
  TGI: 26.9 µM
SK-MEL-5 melanoma
  TGI: 27.6 µM
A549 NSCLC
  TGI: > 100 µM
KM12 colon
  TGI: 27.6 µM
DU-145 prostate
  TGI: 31.9 µM
A498 renal
  TGI: 34.6 µM
OVCAR-5 ovarian
  TGI: 34.8 µM
SN12C renal
  TGI: 31.3 µM
RXF 393 renal
  TGI: 23.6 µM
HOP-62 NSCLC
  TGI: 32.6 µM
OVCAR-3 ovarian
  TGI: 30.1 µM
CCRF-CEM leukemia
  TGI: > 100 µM
HCT-116 colon
  TGI: 29.8 µM
MALME-3M melanoma
  TGI: 29.2 µM
NCI/ADR-RES ovarian
  TGI: 84.4 µM
SK-MEL-2 melanoma
  TGI: 27.1 µM
BT-549 breast
  TGI: 29.3 µM
SF-295 CNS
  TGI: 41.2 µM
IGROV1 ovarian
  TGI: 28.4 µM
HS 578T breast
  TGI: 31.9 µM
ACHN renal
  TGI: 30.4 µM
K-562 leukemia
  TGI: > 100 µM
OVCAR-4 ovarian
  TGI: 31.2 µM
NCI-H522 lung
  TGI: 16.8 µM

From PubChem BioAssay (NCI)
